# Assay results: publication PMC12692291, “Development and In Vitro Evaluation of [^64Cu]Cu-NOTA-TP-PSMA, a Novel Radiotheranostic Agent Against Prostate Cancer” (International Journal of Molecular Sciences, 2025)
# How the values were obtained:
# LNCaP cells [1] = experiment: Efflux (retention) study in LNCaP cells; assay type: cell-based; details: Table S3 first part (LNCaP)
# Method: Efflux studies were conducted by incubating the cells with the compound for an initial period of 1 h, after which the incubation medium was replaced with fresh, compound-free medium. The retained intracellular radioactivity was then measured at various time points up to 24 h and expressed as the percentage of retention relative to the 0-h time point, defined as the time immediately after medium replacement.
# LNCaP cells [2] = experiment: Cellular uptake and internalization in LNCaP cells; assay type: cell-based
# Method: LNCaP cells (1 × 10^5 cells/well) were seeded into 24-well plates and incubated for 72 h. Cells were treated with 1nM [^64Cu]Cu-NOTA-TP-PSMA or control monomers ([^64Cu]Cu-NOTA-TP and [^64Cu]Cu-NOTA-PSMA), each containing 0.1 MBq of radioactivity in RPMI-1640 medium.
# Uptake and internalization were assessed at multiple time points (30 min to 24 h). At each timepoint, cells were washed with cold PBS, detached with trypsin, and counted using a hemocytometer. For internalization studies, surface-bound radioactivity was removed using 50 mM glycine-HCl buffer (pH 2.2) for 5 min, followed by additional PBS washes.
# To investigate the internalization mechanism, parallel experiments were conducted at 4 °C to evaluate passive versus active uptake. Receptor specificity was assessed via blocking assays using 1 µM ^natCu-NOTA-TP-PSMA (1000-fold excess) co-incubated with 1 nM radiolabeled tracer. Post-incubation, intracellular radioactivity was quantified using a HIDEX gamma counter. All results were normalized to 10^6 cells and expressed as percent counts per minute per million cells (%CPM/10^6 cells).
smiles,measurement,setting,value
O=C(O)CC[C@H](NC(=O)N[C@@H](CCCCNC(=O)[C@@H](Cc1ccc2ccccc2c1)NC(=O)C1CCC(CNC(=O)C(CCCCNC(=O)c2cc3[n+]4c(c2)-c2cccc[n+]2[Pt-2]4([Cl])[n+]2ccccc2-3)NC(=O)COCCOCCNC(=O)CN2CCN3CCN(CC2)CC(=O)[O][64Cu][O]C(=O)C3)CC1)C(=O)O)C(=O)O (stereo partly drawn) [[^64Cu]Cu-NOTA-TP-PSMA 1],Retained activity,LNCaP cells [1]; 0 h after medium replacement,100 ± 0 %CPM/106 cells
same,Retained activity,LNCaP cells [1]; 1 h,85.36 ± 11.10 %CPM/106 cells
same,Retained activity,LNCaP cells [1]; 2 h,71.36 ± 13.48 %CPM/106 cells
same,Retained activity,LNCaP cells [1]; 4 h,67.8 ± 9.3 %CPM/106 cells
same,Retained activity,LNCaP cells [1]; 24 h,51.7 ± 9.4 %CPM/106 cells
same,internalization fold greater in LNCaP than HEK-293,LNCaP cells [2]; 24 h,approximately 6 fold
same,uptake fold greater in LNCaP than HEK-293,LNCaP cells [2]; 24 h,approximately 8 fold
same,fold decrease of internalization/uptake at 4 °C versus 37 °C,LNCaP cells [2]; LNCaP,~ 10 fold
same,Internalization at 4 °C,"LNCaP cells [2]; LNCaP, 4 °C, 24 h",3.9 ± 0.5 %CPM/10^6 cells
same,Internalization,"LNCaP cells [2]; LNCaP, 24 h, 37 °C, 1 nM",44.9 ± 7.3 %CPM/10^6 cells
same,Uptake,"LNCaP cells [2]; LNCaP, 24 h, 37 °C, 1 nM",65.9 ± 8.6 %CPM/10^6 cells
same,fold decrease of internalization/uptake at 4 °C versus 37 °C,"LNCaP cells [2]; LNCaP, listed as [^64Cu]Cu-NOTA-TP-PSMA",> 10 fold
same,Uptake,"LNCaP cells [2]; Table S1, LNCaP, 1 h",16.52 ± 5.38 %ID/10⁶ cells
same,Uptake blockage,"LNCaP cells [2]; Table S1, LNCaP, 1 h, 1 µM natCu-NOTA-TP-PSMA (1000-fold excess)",11.06 ± 5.93 %ID/10⁶ cells
same,Uptake blockage,"LNCaP cells [2]; Table S1, LNCaP, 2 h, 1000-fold excess blocking",16.36 ± 7.23 %ID/10⁶ cells
same,Uptake,"LNCaP cells [2]; Table S1, LNCaP, 4 h",44.61 ± 16.49 %ID/10⁶ cells
same,Uptake blockage,"LNCaP cells [2]; Table S1, LNCaP, 4 h, 1000-fold excess blocking",18.70 ± 10.46 %ID/10⁶ cells
same,Uptake,"LNCaP cells [2]; Table S1, LNCaP, 20 h",62.88 ± 9.10 %ID/10⁶ cells
same,Uptake blockage,"LNCaP cells [2]; Table S1, LNCaP, 20 h, 1000-fold excess blocking",30.68 ± 11.43 %ID/10⁶ cells
same,Uptake,"LNCaP cells [2]; Table S1, LNCaP, 24 h",65.87 ± 8.37 %ID/10⁶ cells
same,Uptake blockage,"LNCaP cells [2]; Table S1, LNCaP, 24 h, 1000-fold excess blocking",37.00 ± 13.09 %ID/10⁶ cells
same,Internalization LNCaP,"LNCaP cells [2]; Table S2, 1 h",11.91 ± 5.75 %ID/10⁶ cells
same,Uptake LNCaP,"LNCaP cells [2]; Table S2, 1 h",16.52 ± 5.53 %ID/10⁶ cells
same,Internalization LNCaP,"LNCaP cells [2]; Table S2, 2 h",17.07 ± 6.19 %ID/10⁶ cells
same,Uptake LNCaP,"LNCaP cells [2]; Table S2, 2 h",28.67 ± 9.74 %ID/10⁶ cells
same,Internalization LNCaP,"LNCaP cells [2]; Table S2, 4 h",30.27 ± 8.92 %ID/10⁶ cells
same,Uptake LNCaP,"LNCaP cells [2]; Table S2, 4 h",44.61 ± 16.99 %ID/10⁶ cells
same,Internalization LNCaP,"LNCaP cells [2]; Table S2, 20 h",42.49 ± 9.41 %ID/10⁶ cells
same,Uptake LNCaP,"LNCaP cells [2]; Table S2, 20 h",62.88 ± 9.37 %ID/10⁶ cells
same,Internalization LNCaP,"LNCaP cells [2]; Table S2, 24 h",44.94 ± 7.32 %ID/10⁶ cells
same,Uptake LNCaP,"LNCaP cells [2]; Table S2, 24 h",65.87 ± 8.61 %ID/10⁶ cells
same,fold higher internalization compared to [64Cu]Cu-NOTA-PSMA,"LNCaP cells [2]; cancer cells (LNCaP), 24 h",2.7 fold
same,fold higher internalization compared to [64Cu]Cu-NOTA-TP,"LNCaP cells [2]; cancer cells (LNCaP), 24 h",1.2 fold
